Results as given in patent publication US4801616A, “Diphenylmethanone compounds and anti-inflammatory use thereof” (Eli Lilly and Company, priority 1986, dated 1989).

Key:
5-lipoxygenase = target: T1, 5-lipoxygenase (Cavia porcellus, UniProt A0A286X958); experiment: 5-Lipoxygenase (5-LPO) Assay, inhibition of 5-HETE formation in PMNL sonicate supernatant; assay type: biochemical, guinea pig; details: for inhibition at 30 µg/mL: percent inhibition at 30 μg/ml
T1 construct: incubating 0.2 ml of the supernatant obtained from the PMNL sonicate with the test compound; from tissue; host or cells: casein-elicited guinea pig peritoneal polymorphonuclear leukocytes (PMNL, more than 95 percent of the cells), sonicated, 30,000 x g supernatant
T1 sequence (A0A286X958 1-674): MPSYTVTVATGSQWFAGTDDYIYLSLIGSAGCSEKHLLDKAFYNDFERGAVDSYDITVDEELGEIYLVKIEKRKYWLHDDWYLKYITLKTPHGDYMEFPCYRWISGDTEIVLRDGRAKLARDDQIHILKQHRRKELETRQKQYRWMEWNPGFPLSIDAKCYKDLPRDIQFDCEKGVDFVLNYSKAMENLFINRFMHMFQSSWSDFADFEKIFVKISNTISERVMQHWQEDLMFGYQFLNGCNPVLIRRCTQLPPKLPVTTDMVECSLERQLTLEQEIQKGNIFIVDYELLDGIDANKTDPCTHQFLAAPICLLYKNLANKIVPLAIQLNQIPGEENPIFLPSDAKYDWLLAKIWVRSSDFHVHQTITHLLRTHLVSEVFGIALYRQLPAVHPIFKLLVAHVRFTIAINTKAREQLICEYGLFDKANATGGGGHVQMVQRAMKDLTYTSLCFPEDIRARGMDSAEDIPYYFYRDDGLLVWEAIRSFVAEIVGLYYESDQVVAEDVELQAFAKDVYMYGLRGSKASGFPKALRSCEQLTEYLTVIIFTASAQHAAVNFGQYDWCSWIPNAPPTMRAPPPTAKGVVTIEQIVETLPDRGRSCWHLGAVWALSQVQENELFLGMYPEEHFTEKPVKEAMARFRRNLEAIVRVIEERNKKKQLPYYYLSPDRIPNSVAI
Description: 5-Lipoxygenase (5-LPO) Assay
Ten milliliters of a 2% casein solution were injected intraperitoneally into guinea pigs weighing 250-300 gm. After 16-18 hours, the guinea pigs were killed by suffocation in a carbon dioxide chamber. The peritoneal cavity was infused with 70 ml of saline and 40-50 ml of the fluid were recovered from the cavity. After centrifugation, cell pellets were washed twice in Hank's balanced salt solution (HBSS) without calcium ion.
The cells were then suspended in 5 ml of sodium phosphate buffer, pH 7.1 containing 1 mM EDTA, and 0.1% gelatin. About 20-30×10^7 cells were obtained from one guinea pig.
The PMNL suspension was disrupted by five 1/2 second pulse sonications at the setting of 3 in a Branson Sonifier, Model 350, equipped with a microtip. The sonicates were combined and centrifuged at 30,000× g for 10 minutes. The supernatant was kept frozen at -70° C. until use.
Enzyme activity was determined by assaying for 5-HETE formation by first incubating 0.2 ml of the supernatant obtained from the PMNL sonicate with the test compound, 1 mM CaCl2, 2 mM ATP, and 1 mM GSH for 5 minutes at 37° C. The mixture is treated with 5 μM ^14 C-arachidonicacid and incubated at 37° C. an additional 10 minutes. The enzyme reaction was then stopped by the addition of 10 μl of 1M citric acid and 10μl of an alcohol solution containing 20 mg/ml each of indomethacin and butylated hydroxyanisole (BHA). The reaction mixture was spotted (50 μl on a silica gel plate (Baker TLC plate S1250-PA-19C) and subjected to TLC in a solvent system of ethyl acetate/2,2,4-trimethylpentane/glacial acetic acid/water (90:50:20:100).
The radioactivity of the arachidonic acid and its metabolites (5-HETE and LTB4) was visualized from a developed x-ray film which had been exposed to the TLC plate 1-2 days. The amount of 5-HETE formed was quantitated by scraping the silica gel area corresponding to the spot on the x-ray film, and the radioactivity determined in a Isocap/300 liquid scintillation counter (Searle Analytic, Inc.).
The percent inhibition of the formation of 5-HETE was determined for each concentration of test compound tested as compared to a control experiment wherein no test compound was added. The concentration and percent inhibition values were plotted on semi log paper and the concentration in which formation of 5-HETE is inhibited by 50% (IC50) was determined by interpolation.

[1] = target: T2, fatty acid cyclooxygenase (Homo sapiens, UniProt P23219); experiment: Fatty Acid Cyclooxygenase (FCO) Assay, inhibition of PGE2 formation by purified human platelet enzyme; assay type: biochemical; details: for IC50: human platelet microsomal enzyme, pH 8.0, 37° C.; for inhibition at 30 µg/mL: percent inhibition at 30 μg/ml
T2 construct: The solubilized fatty acid cyclooxygenase was applied to a 440 ml electrofocusing column; from tissue; host or cells: human platelets: microsomes solubilized with Triton X-100, purified by electrofocusing and G-200 Sephadex
Description: Fatty Acid Cyclooxygenase (FCO) Assay
Microsomes were prepared from 185 bags of human platelets (each bag containing the platelets from one pint of blood prepared using differential centrifugation procedures). The platelets from approximately 60 bags were prepared at one time. Platelet-rich plasma (500 g) was centrifuged at 10,000×g for 20 minutes, and the platelet pellet was suspended in 100 ml of 0.1M potassium phosphate buffer, pH 8.0, with a Teflon glass homogenizer and sonicated for 5.0 minutes with a Bronson Sonifier (Model 350) in a rosette flask cooled in ice water. Disrupted platelets were centrifuged 15 minutes at 10,000× g. The supernatant was centrifuged at 100,000× g for 90 minutes and the microsomal pellets were homogenized in 25 ml of 20% sucrose containing 1.0% Triton X-100 detergent. After 30 minutes at 4° C., the solubilized microsomes were centrifuged at 100,000× g for 60 minutes. The yellow supernatant was removed and stored at -70 ° C.
The solubilized fatty acid cyclooxygenase was applied to a 440 ml electrofocusing column (LKB-8012) containing 1% phisolytes (Brinkman Instruments, Westburgh, NY), pH 2-11, with the cathode at the top of the column. The enzyme was layered onto the column at the appropriate time so that its sucrose concentration was equal to that of the column gradient. This was accomplished by checking the gradient concentration periodically with a sucrose hand refractometer. Electrofocusing was carried out for 16 hours with an initial voltage of 400 V and a final voltage of 900-1,000 volts. Fractions were collected (20 ml) and assayed for PGE2 formation. Active peak fractions were pooled and concentrated by ultrafiltration (XM 100A) to a volume of 3-5 ml.
Active fractions from electrofocusing were applied to a G-200 Sephadex column (2 cm×46 cm) and eluted with 10 mM potassium phosphate buffer, pH 7.0, in 5 ml fractions. After assay, active fractions were poored and concentrated to 1.0 ml by ultrafiltration (XM 100A), and kept frozen at -70° C.
Enzyme activity was determined by assaying for PGE2 formation by preincubating the enzyme with 10 mmol/l imidazole phosphate buffer, pH 8.0, 2 mmol/l epinephrine, 2 mmol/l methemoglobin, and the test compound (30 μg/ml) in a total volume of 0.2 ml for one minute at 37° C. After preincubation, 5 mmol/l ^14 C-arachidonic acid were added and the mixture was incubated an additional 0.5 minutes at 37° C. The enzyme reaction was stopped by the addition of 2 μl of indomethacin (2 mg/ml) in alcohol.
The reaction mixture was spotted (50 μl) on a silica gel (LQ6D) plate and subjected to TLC. The solvent system consisted of chloroform-methanol-glacial acetic acid (90:5:5, v/v/v) and the relative mobilities were PGF2α =0.235, and PGE2 =0.47. The silica gel on the plate was scraped in 1 cm sections, suspended in 5 ml of the scintillation fluid [5.88 g of 2,5-diphenyloxazole and 118 mg of 1,4 -bis(5-phenyloxazol-2-yl)benzene] dissolved in 650 ml of toluene and 350 ml of Triton X-100) and the radioactivity was determined in an Isocap/300 liquid scintillation counter (Searle Analytic, Inc., Southfield, Mich.). Another 50 μl of the mixture was added to 10 ml of the Triton X-100 based scintillation fluid, and the radioactivity was determined so that the amount of radioactivity recovery from the TLC plate could be ascertained. PGE2 formation for each test compound was determined as a percent of control experiments wherein no test compound was added. Data is expressed in Table I either as the percent inhibition of formation of PGE2 at a test compound concentration of 30 μ g/ml, or as an IC50 for inhibition of PGE2 formation.

[2] = guinea pig PMNL sonicate supernatant, 37° C., 5 μM 14C-arachidonic acid

T2 sequence (P23219 24-599): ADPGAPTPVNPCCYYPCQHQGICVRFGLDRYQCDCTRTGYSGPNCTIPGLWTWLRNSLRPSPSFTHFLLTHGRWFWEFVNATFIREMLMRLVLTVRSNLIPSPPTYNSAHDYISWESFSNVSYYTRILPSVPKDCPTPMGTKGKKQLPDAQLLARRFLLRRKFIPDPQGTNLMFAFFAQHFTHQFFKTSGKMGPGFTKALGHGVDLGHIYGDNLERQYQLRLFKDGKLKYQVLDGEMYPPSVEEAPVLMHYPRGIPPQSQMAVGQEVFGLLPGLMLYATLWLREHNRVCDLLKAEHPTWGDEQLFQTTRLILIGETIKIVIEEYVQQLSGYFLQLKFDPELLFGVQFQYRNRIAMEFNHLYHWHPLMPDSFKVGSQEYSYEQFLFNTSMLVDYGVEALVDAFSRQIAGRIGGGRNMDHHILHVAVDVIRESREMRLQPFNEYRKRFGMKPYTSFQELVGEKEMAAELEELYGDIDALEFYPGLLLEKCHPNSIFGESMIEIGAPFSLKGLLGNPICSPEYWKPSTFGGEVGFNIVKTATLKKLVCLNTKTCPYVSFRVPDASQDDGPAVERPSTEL

Compound	IC50 (5-lipoxygenase; [2]) [µM]	IC50 [1] [µM]	inhibition at 30 µg/mL [1] [%]	inhibition at 30 µg/mL (5-lipoxygenase) [%]	IC50 5-LPO (inhibition of 5-HETE formation) (5-lipoxygenase; [2]) [mg/L]
CCCc1c(OC)ccc(C(=O)c2ccccc2OC)c1OC [Example 1, (2,4-Dimethoxy-3-propylphenyl)(2-methoxyphenyl)methanone]	0.954	17.5	–	–	–
CCCc1c(OC)ccc(C(=O)c2ccccc2O)c1OC [Example 2, (2,4-Dimethoxy-3-propylphenyl)(2-hydroxyphenyl)methanone]	2.66	9.32	–	–	–
CCCc1c(OC)ccc(C(=O)c2ccccc2O)c1O [Example 3, (2-Hydroxy-4-methoxy-3-propylphenyl)(2-hydroxyphenyl)methanone]	1.05	4.89	–	–	–
CCCc1c(OC(C)=O)ccc(C(=O)c2ccccc2OC(C)=O)c1O [Example 6, [4-(Acetyloxy)-2-hydroxy-3-propylphenyl][2(acetyloxy)phenyl]methanone]	11.2	–	12	–	–
CCCc1cc(C(=O)c2ccccc2O)c(O)c(CCC)c1O [Example 7, (2,4-Dihydroxy-3,5-dipropylphenyl)(2-hydroxyphenyl)methanone]	63.6	17.5	–	–	–
CCCc1c(O)ccc(C(=O)c2ccccc2Cl)c1O [Example 10, (2-Chlorophenyl)(2,4-dihydroxy-3-propylphenyl)methanone]	17.2	–	100	–	–
CCCc1c(OCC#N)ccc(C(=O)c2ccccc2O)c1O [Example 12]	22.5	32.1	–	–	–
CCCc1c(OCCCCCC#N)ccc(C(=O)c2ccccc2O)c1O [Example 13, 6-[3-Hydroxy-4-(2-hydroxybenzoyl)-2-propylphenoxy]hexanenitrile]	5.44	–	40	–	–
CCCc1c(OCCCCCCC#N)ccc(C(=O)c2ccccc2O)c1O [Example 14, 7-[3-Hydroxy-4-(2-hydroxybenzoyl)-2-propylphenoxy]heptanenitrile]	0.524	–	37	–	–
CCCc1c(OCc2ccc(C#N)cc2)ccc(C(=O)c2ccccc2O)c1O [Example 17, 4-([3-Hydroxy-4-(2-hydroxybenzoyl)-2-propylphenoxy]methyl)benzonitrile]	–	–	48	94	–
CCCc1c(OCCCCC#N)ccc(C(=O)c2ccccc2OC)c1O [Example 18, 5-[3-Hydroxy-4-(2-methoxybenzoyl)-2-propylphenoxy]pentanenitrile]	21.8	–	15	–	–
CCCc1c(OCCCCC#N)ccc(C(=O)c2ccccc2OC)c1OC [Example 19, 5-[3-Methoxy-4-(2-methoxybenzoyl)-2-propylphenoxy]pentanenitrile]	26.2	–	9	–	–
C=C(c1ccccc1OC)c1ccc(OCCCCC#N)c(CCC)c1OC [Example 20, 5-(3-Methoxy-4-[1-(2-methoxyphenyl)ethenyl]2-propylphenoxy)pentanenitrile]	79.1	–	–	–	–
CCCc1c(OCc2nnn[nH]2)ccc(C(=O)c2ccccc2O)c1O [Example 21, (2-Hydroxyphenyl)[2-hydroxy-3-propyl-4-(1H-tetrazol-5-ylmethoxy)phenyl]methanone]	–	–	0	0	–
CCCc1c(OCc2ccc(-c3nnn[nH]3)cc2)ccc(C(=O)c2ccccc2O)c1O [Example 22, (2-Hydroxyphenyl)[2-hydroxy-3-propyl-4([4-(1H-tetrazol-5-yl)phenyl]methoxy)phenyl]methanone]	9.29	32.5	–	–	–
CCCc1c(OCCCCCc2nnn[nH]2)ccc(C(=O)c2ccccc2O)c1O [Example 24, (2-Hydroxyphenyl)[2-hydroxy-3-propyl-4-([5-(1H-tetrazol-5-yl)pentyl]oxy)phenyl]methanone]	29.2	–	–	–	–
CCCc1c(OCCCc2nnn[nH]2)ccc(C(=O)c2ccccc2O)c1O [Example 27, (2-Hydroxyphenyl)(2-hydroxy-3-propyl-4-[3-(1H-tetrazol-5-yl)propoxy]phenyl)methanone]	10.5	–	15	–	–
CCCc1c(OCCCCc2nnn[nH]2)ccc(C(=O)c2ccccc2OC)c1OC [Example 29, (2-Methoxyphenyl)(2-methoxy-3-propyl-4-[4-(1H-tetrazol-5-yl)butoxy]phenyl)methanone]	14.1	–	< 5	–	–
CCCc1c(OCCCCc2nnn(C)n2)ccc(C(=O)c2ccccc2OC)c1O [Example 32, (2-Hydroxy-4-[4-(2-methyl-2H-tetrazol-5yl)butoxy]-3-propylphenyl)(2-methoxyphenyl)methanone]	0.471	–	–	–	–
(2,3-Dihydro-4-hydroxy-2-methyl-7-benzofuranyl)(2-hydroxyphenyl)methanone [Example 8]	–	–	–	–	8
